# Target: T1, human NEP (Homo sapiens, UniProt P08473)
# T1 construct: purchased R&D Systems, Minneapolis, Minn; 1182-ZN
# Assay: In vitro enzyme inhibition assay at human NEP (Assay 1)
# Type: biochemical
# Conditions: recombinant enzyme, fluorogenic peptide substrate, 37° C.
# Protocol: In Vitro Assays for the Quantitation of Inhibitor Potencies (IC50) at Human and Rat NEP, and Human ACE
# The inhibitory activities of compounds at human and rat neprilysin (EC 3.4.24.11; NEP) and human angiotensin converting enzyme (ACE) were determined using in vitro assays as described below.
# Recombinant human NEP and recombinant human ACE were obtained commercially (R&D Systems, Minneapolis, Minn., catalog numbers 1182-ZN and 929-ZN, respectively). The fluorogenic peptide substrate Mca-D-Arg-Arg-Leu-Dap-(Dnp)-OH (Medeiros et al. (1997) Braz. J. Med. Biol. Res. 30:1157-62; Anaspec, San Jose, Calif.) and Abz-Phe-Arg-Lys(Dnp)-Pro-OH (Araujo et al. (2000) Biochemistry 39:8519-8525; Bachem, Torrance, Calif.) were used in the NEP and ACE assays respectively.
# The assays were performed in 384-well white opaque plates at 37° C. using the fluorogenic peptide substrates at a concentration of 10 μM in Assay Buffer (NEP: 50 mM HEPES, pH 7.5, 100 mM NaCl, 0.01% polyethylene glycol sorbitan monolaurate (Tween-20), 10 μM ZnSO4; ACE: 50 mM HEPES, pH 7.5, 100 mM NaCl, 0.01% Tween-20, 1 μM ZnSO4).
# Test compounds were assayed over the range of concentrations from […] to 20 μM. Test compounds were added to the enzymes and incubated for 30 minute at 37° C. prior to initiating the reaction by the addition of substrate. Reactions were terminated after 20 minutes of incubation at 37° C. by the addition of glacial acetic acid to a final concentration of 3.6% (v/v).
# Plates were read on a fluorometer with excitation and emission wavelengths set to 320 nm and 405 nm, respectively. Inhibition constants were obtained by nonlinear regression of the data using the equation (GraphPad Software, Inc., San Diego, Calif.): v=v0/[1+(I/K′)] where v is the reaction rate, v0 is the uninhibited reaction rate, I is the inhibitor concentration and K′ is the apparent inhibition constant.
# Compounds of the invention were tested in this assay and found to have pKi values at human NEP as follows.
# T1 sequence (P08473 whole entry): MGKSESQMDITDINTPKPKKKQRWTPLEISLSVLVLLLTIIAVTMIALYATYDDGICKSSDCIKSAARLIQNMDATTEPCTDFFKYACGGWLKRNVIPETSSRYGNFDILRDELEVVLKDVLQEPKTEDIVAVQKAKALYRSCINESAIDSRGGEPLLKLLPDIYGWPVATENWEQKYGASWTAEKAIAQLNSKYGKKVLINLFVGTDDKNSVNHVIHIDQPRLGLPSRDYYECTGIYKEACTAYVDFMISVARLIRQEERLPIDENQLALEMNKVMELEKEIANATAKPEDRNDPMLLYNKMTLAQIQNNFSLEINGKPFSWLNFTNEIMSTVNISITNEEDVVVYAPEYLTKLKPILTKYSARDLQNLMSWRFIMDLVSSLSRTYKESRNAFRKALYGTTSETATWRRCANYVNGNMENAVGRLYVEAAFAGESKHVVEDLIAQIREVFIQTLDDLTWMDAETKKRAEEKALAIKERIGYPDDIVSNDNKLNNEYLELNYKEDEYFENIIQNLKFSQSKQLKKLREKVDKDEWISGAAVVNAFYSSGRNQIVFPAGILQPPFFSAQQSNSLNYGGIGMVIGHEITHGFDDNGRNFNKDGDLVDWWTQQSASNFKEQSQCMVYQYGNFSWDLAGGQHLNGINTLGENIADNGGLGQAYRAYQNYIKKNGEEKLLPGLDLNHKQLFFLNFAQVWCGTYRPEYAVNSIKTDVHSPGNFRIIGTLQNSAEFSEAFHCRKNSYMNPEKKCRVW
row,Structure (SMILES),Ki [nM]
1,"O=C(NN(Cc1ccc(-c2cccc(Cl)c2)cc1)C[C@@H](O)C(=O)O)c1cc(-c2ccccc2Cl)no1 [Example 4-29, (R)-3-{N-(3′-Chlorobiphenyl-4-ylmethyl)-N′-[3-(2-chlorophenyl)-isoxazole-5-carbonyl]-hydrazino}-2-hydroxy-propionic acid]",≤ 1
2,"COc1ccccc1-c1cc(C(=O)NN(Cc2ccc(-c3cccc(Cl)c3)cc2)C[C@@H](O)C(=O)O)on1 [Example 4-30, (R)-3-{N-(3′-Chlorobiphenyl-4-ylmethyl)-N′-[3-(2-methoxy-phenyl)-isoxazole-5-carbonyl]-hydrazino}-2-hydroxy-propionic acid]",1.26 to 10
3,"O=C(NN(Cc1ccc(-c2cccc(Cl)c2)cc1)C[C@@H](O)C(=O)O)c1cc(-c2ccccc2F)no1 [Example 4-31, (R)-3-{N-(3′-Chlorobiphenyl-4-ylmethyl)-N′-[3-(2-fluorophenyl)-isoxazole-5-carbonyl]-hydrazino}-2-hydroxy-propionic acid]",1.26 to 10
4,"COc1cc(C(=O)NN(Cc2ccc(-c3cccc(Cl)c3)cc2)C[C@@H](O)C(=O)O)on1 [Example 4-32, (R)-3-[N-(3′-Chlorobiphenyl-4-ylmethyl)-N′-(3-methoxy-isoxazole-5-carbonyl)-hydrazino]-2-hydroxy-propionic acid]",1.26 to 10
5,"O=C(NN(Cc1ccc(-c2cccc(Cl)c2)cc1)C[C@@H](O)C(=O)O)c1cnc(O)nc1 [Example 4-34, (R)-3-[N-(3′-Chlorobiphenyl-4-ylmethyl)-N′-(2-hydroxy-pyrimidine-5-carbonyl)-hydrazino]-2-hydroxy-propionic acid]",≤ 1
6,"O=C(O)c1cc(C(=O)NN(Cc2ccc(-c3cccc(Cl)c3)cc2)C[C@@H](O)C(=O)O)ncn1 [Example 4-35, 6-[N′-((R)-2-Carboxy-2-hydroxy-ethyl)-N′-(3′-chlorobiphenyl-4-ylmethyl)-hydrazinocarbonyl]-pyrimidine-4-carboxylic acid]",≤ 1
7,"O=C(NN(Cc1ccc(-c2cccc(Cl)c2)cc1)C[C@@H](O)C(=O)O)c1cc(O)nc(O)n1 [Example 4-36, (R)-3-[N-(3′-Chlorobiphenyl-4-ylmethyl)-N′-(2,6-dihydroxy-pyrimidine-4-carbonyl)-hydrazino]-2-hydroxy-propionic acid]",12.6 to 100
8,"O=C(NN(Cc1ccc(-c2cccc(Cl)c2)cc1)C[C@@H](O)C(=O)O)c1ccnc(O)n1 [Example 4-37, (R)-3-[N-(3′-Chlorobiphenyl-4-ylmethyl)-N′-(2-hydroxy-pyrimidine-4-carbonyl)-hydrazino]-2-hydroxy-propionic acid]",12.6 to 100
9,"O=C(O)c1cc(C(=O)NN(Cc2ccc(-c3cccc(Cl)c3)cc2)C[C@@H](O)C(=O)O)nc(O)n1 [Example 4-38, 6-[N′-((R)-2-Carboxy-2-hydroxy-ethyl)-N′-(3′-chlorobiphenyl-4-ylmethyl)-hydrazinocarbonyl]-2-hydroxy-pyrimidine-4-carboxylic acid]",≤ 1
10,"O=C(NN(Cc1ccc(-c2cccc(Cl)c2)cc1)C[C@@H](O)C(=O)O)c1c[nH]c(=O)o1 [Example 4-39, (R)-3-[N-(3′-Chlorobiphenyl-4-ylmethyl)-N′-(2-oxo-2,3-dihydro-oxazole-5-carbonyl)-hydrazino]-2-hydroxy-propionic acid]",1.26 to 10
11,"O=C(NN(Cc1ccc(-c2cccc(Cl)c2)cc1)C[C@@H](O)C(=O)O)c1cnc(O)s1 [Example 4-40, (R)-3-[N-(3′-Chlorobiphenyl-4-ylmethyl)-N′-(2-hydroxy-thiazole-5-carbonyl)-hydrazino]-2-hydroxy-propionic acid]",1.26 to 10
12,"O=C(NN(Cc1ccc(-c2cccc(Cl)c2)cc1)C[C@@H](O)C(=O)O)c1ccc2[nH]nnc2c1F [Example 4-42, (R)-3-[N-(3′-Chlorobiphenyl-4-ylmethyl)-N′-(4-fluoro-1H-benzotriazole-5-carbonyl)-hydrazino]-2-hydroxy-propionic acid]",1.26 to 10
13,"O=C(NN(Cc1ccc(-c2cccc(F)c2)cc1)C[C@@H](O)C(=O)O)c1cc(O)no1 [Example 5-1, (R)-3-[N-(3′-Fluoro-biphenyl-4-ylmethyl)-N′-(3-hydroxy-isoxazole-5-carbonyl)-hydrazino]-2-hydroxy-propionic acid]",1.26 to 10
14,"O=C(NN(Cc1ccc(-c2cccc(C(F)(F)F)c2)cc1)C[C@@H](O)C(=O)O)c1cc(O)no1 [Example 5-2, (R)-2-Hydroxy-3-[N′-(3-hydroxy-isoxazole-5-carbonyl)-N-(3′-trifluoromethyl-biphenyl-4-ylmethyl)-hydrazino]-propionic acid]",12.6 to 100
15,"O=C(NN(Cc1ccc(-c2cccc(O)c2)cc1)C[C@H](O)C(=O)O)c1cc(O)no1 [Example 5-3, (S)-2-Hydroxy-3-[N-(3′-hydroxy-biphenyl-4-ylmethyl)-N′-(3-hydroxy-isoxazole-5-carbonyl)-hydrazino]-propionic acid]",1.26 to 10
16,"Cc1cccc(-c2ccc(CN(C[C@H](O)C(=O)O)NC(=O)c3cc(O)no3)cc2)c1 [Example 5-4, (S)-2-Hydroxy-3-[N′-(3-hydroxy-isoxazole-5-carbonyl)-N-(3′-methyl-biphenyl-4-ylmethyl)-hydrazino]-propionic acid]",≤ 1
17,"COc1ccccc1-c1ccc(CN(C[C@@H](O)C(=O)O)NC(=O)c2cc(O)no2)cc1 [Example 5-5, (R)-2-Hydroxy-3-[N′-(3-hydroxy-isoxazole-5-carbonyl)-N-(2′-methoxy-biphenyl-4-ylmethyl)-hydrazino]-propionic acid]",1.26 to 10
18,"O=C(NN(Cc1ccc(-c2ccccc2O)cc1)C[C@@H](O)C(=O)O)c1cc(O)no1 [Example 5-6, (R)-2-Hydroxy-3-[N-(2′-hydroxy-biphenyl-4-ylmethyl)-N′-(3-hydroxy-isoxazole-5-carbonyl)-hydrazino]-propionic acid]",1.26 to 10
19,"O=C(NN(Cc1ccc(-c2ccccc2Cl)cc1)C[C@@H](O)C(=O)O)c1cc(O)no1 [Example 5-7, (R)-3-[N-(2′-Chloro-biphenyl-4-ylmethyl)-N′-(3-hydroxy-isoxazole-5-carbonyl)-hydrazino]-2-hydroxy-propionic acid]",1.26 to 10
20,"O=C(NN(Cc1ccc(-c2ccccc2F)cc1)C[C@@H](O)C(=O)O)c1cc(O)no1 [Example 5-8, (R)-3-[N-(2′-Fluoro-biphenyl-4-ylmethyl)-N′-(3-hydroxy-isoxazole-5-carbonyl)-hydrazino]-2-hydroxy-propionic acid]",1.26 to 10
21,"COc1ccccc1-c1ccc(CN(C[C@H](O)C(=O)O)NC(=O)c2cc(C(C)=O)n[nH]2)cc1 [Example 5-9, (S)-3-[N′-(5-Acetyl-2H-pyrazole-3-carbonyl)-N-(2′-methoxy-biphenyl-4-ylmethyl)-hydrazino]-2-hydroxy-propionic acid]",1.26 to 10
22,"COc1ccccc1-c1ccc(CN(C[C@@H](O)C(=O)O)NC(=O)c2nnn[nH]2)cc1 [Example 5-10, (R)-2-Hydroxy-3-[N-(2′-methoxy-biphenyl-4-ylmethyl)-N′-(1H-tetrazole-5-carbonyl)-hydrazino]-propionic acid]",1.26 to 10
23,"O=C(NN(Cc1ccc(-c2cc(Cl)ccc2F)cc1)C[C@@H](O)C(=O)O)c1nnn[nH]1 [Example 6A, (R)-3-[N-(5′-Chloro-2′-fluorobiphenyl-4-ylmethyl)-N′-(1H-tetrazole-5-carbonyl)-hydrazino]-2-hydroxypropionic Acid]",≤ 1
